Test results as given in publication PMC12276035, “Novel Para‐Phenylenediamine‐Based Derivatives as Receptor Tyrosine Kinase‐like Orphan Receptor 1 (ROR1) Inhibitors: An In Vitro Preliminary Characterization” (Chemmedchem, 2025).

Key:
ROR1 kinase domain = molecular target: T1, ROR1 kinase domain (Homo sapiens, UniProt Q01973); experiment: SPR assay on ROR1 kinase domain; format: binding; conditions: SPR, KD ± SD, 0 to 100 μM, 25 °C; n.b. = no binding; read-out: Kinase domain KD
T1 construct: recombinant human ROR1 protein (aa 453‐783, His&GST Tag); His; GST; purchased Elabscience
T1 sequence (Q01973 453-783): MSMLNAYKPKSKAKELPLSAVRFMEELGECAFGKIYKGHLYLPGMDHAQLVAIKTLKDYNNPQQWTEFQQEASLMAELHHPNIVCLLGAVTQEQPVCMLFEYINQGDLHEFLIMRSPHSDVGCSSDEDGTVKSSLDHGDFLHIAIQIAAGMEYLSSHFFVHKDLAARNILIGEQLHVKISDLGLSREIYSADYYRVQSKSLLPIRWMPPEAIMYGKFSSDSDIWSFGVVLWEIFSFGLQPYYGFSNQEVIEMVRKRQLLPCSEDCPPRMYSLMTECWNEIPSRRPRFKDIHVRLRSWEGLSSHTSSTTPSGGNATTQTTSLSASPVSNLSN
Experimental: We performed molecular docking experiments to explore the binding mode of novel derivatives using the crystallographic structure of the protein co‐complexed with ponatinib, a known inhibitor of ROR1 (PDB code: 6TU9).^[ [30] ^] […] To evaluate the affinity of the synthesized molecules (10, 13, 14, 17–21, 26–29) for the protein counterpart, SPR assay was performed against kinase domain ROR1. Protein immobilization was achieved using the amide coupling method, and the molecules were tested at 10 different concentrations, ranging from 0 to 100 μM. Ponatinib was used as a positive control^[ [30] ^] (Table 1 ).
SPR spectroscopy analyses were conducted to evaluate the binding affinity of the synthesized compounds against ROR1 receptor using a Biacore T200 optical biosensor equipped with research‐grade CM5 sensor chips (Cytiva, Marlborough, USA). ROR1 kinase domain was immobilized on the CM5 sensor chip surface following standard amine‐coupling protocols. Specifically, kinasic domain was immobilized at pH 4.5 10 mM CH3COONa using a flow rate of 10 μL min^−1, achieving a density of around 20 kRU.
For the experiments, surfaces of ROR1, along with an unmodified reference surface, were prepared for simultaneous analyses. […] The compounds were injected in a series of concentrations (1:2 dilution, 10 different concentrations), spanning from 0 to 100 μM. The concentration series were prepared in 96‐well plates. SPR experiments were conducted at 25 °C, with a flow rate of 20 μL min^−1, allowing for 90 s of association monitoring and 400 s of dissociation monitoring. Changes in mass, reflective of the binding response, were recorded as resonance units (RU). K D values were determined using the Biaevaluation software performing a global fit of the double‐referenced association and dissociation data to a 1:1 interaction model^[ [43] ^] (see Figure S38, Supporting Information).

JeKo‐1 cells = experiment: MTT cell viability assay, JeKo‐1; format: cell-based; conditions: Homo sapiens, cytotoxicity, treated for 72 h, read-out: EC50 ± SD JeKo‐1
Experimental: Cytotoxicity studies, assessing the activity of the synthetized compounds, were performed only on the molecules showing the best binding profile in the SPR assay. MTT test was performed on two cell lines known for overexpressing ROR1, particularly MTT assays were conducted on JeKo‐1 (human mantle cell lymphoma) and SH‐SY5Y (neuroblastoma), exposing them to different concentrations of compounds for 72 h (Table 2 ). […] This increased effectiveness is likely due to the high expression of the target protein in leukemia and other hematologic malignancies. […] A key structural difference in 18 and 19 compared to active compounds is the absence of the trifluoromethyl group on the aromatic ring. Indeed, the removal of the trifluoromethyl group (18) or the incorporation of an electron‐donating substituent (19) alters the interaction with the ATP‐binding pocket.
The JeKo‐1 mantle cell lymphoma (MCL) cell line, derived from mantle cell lymphoma of B‐cell lineage, was obtained from ATCC and was grown in RPMI supplemented with 10% v/v fetal bovine serum, 2 mM L‐glutamine, 100 U mL^−1 penicillin, and 0.1 mg mL^−1 streptomycin.
Cell viability was established by measuring mitochondrial metabolic activity with MTT. In brief, SH‐SY5Y (20 × 10^3 cells/well) and JeKo‐1 (10 × 10^3 cells/well) were plated into 96‐well plates for 24 h, then the compounds (1.56–50 μM) were added. […], cells were replaced with a fresh medium containing 0.5 mg mL^−1 MTT.^[ [45] ^] Cells were incubated for 1–3 h at 37 °C, then the medium was discarded, and formazan blue crystals in the cells dissolved with 100 μL per well of a solution containing isopropanol/HCl 0.1 M. The absorbance was measured at 570 nm using a microplate reader (Multiskan Go, Thermo Scientific, Waltham, MA, USA). Cell viability was expressed as a percentage relative to the untreated cells cultured in medium with 0.1% DMSO and set to 100%, whereas 10% DMSO was used as positive control and set to 0% of viability. The EC50 values were calculated using GraphPad Prism 8.0 software by nonlinear regression of dose‐response inhibition.

Question: What does the source list for `O=C(NCc1ccc(-c2ccccc2)cc1)Nc1ccc(NCC2CCNCC2)cc1C(F)(F)F` [Compound 17]?
Answer: Kd (ROR1 kinase domain): 12.1 ± 2.68 µM; EC50 (JeKo‐1 cells): 10.3 ± 2.86 µM
